From patent US6770673B1, “Therapeutic uses of arglabin in combination with other chemotherapy agents” (priority 1997, dated 2004)
Marks after values point to notes of the source that are not given here.

Legend:
immune system [1] = experiment: Immune system modulation in intact mice; type: in vivo
immune system [2] = experiment: Immune system modulation in mice immunodepressed with cyclophosphamide; type: in vivo; details: 10 mg/kg for 10 days
Experimental: Mice were immunodepressed by administration of 200 mg/kg of cyclophosphamide. […] The Hemagglutination test and delayed-type hypersensitivity reaction were determined before and after administration of drug.
The increased number of T-lymphocytes was accompanied by an elevation in the T-helper subpopulation as well as the T-suppressor subpopulation, although to a lesser extent.

immune system [3] = experiment: Immunological indices in August rats with Pliss lymphosarcoma; type: in vivo; details: Increased; about 50 mg/kg IP daily for 10 days
From the text: Additional immunological data were obtained from an “August” line of rats, weighing 140-160 g, with and without Pliss lymphosarcoma. […] Results are summarized in Table V. Overall, lyophilized-dimethylaminoarglabin hydrochloride stimulated delayed type hypersensitivity, but reduced all other studied indices in intact rats. In rats with Pliss Lymphosarcoma, the immune system was stimulated, as all studied indices increased.

stage IV cancer = experiment: Second clinical trial, 72 patients; type: in vivo, human
From the text: A three to six month lag in dimethylaminoarglabin hydrochloride production halted the first clinical trial. […] Among the patients, 25% had carcinoma of the stomach, 16.7% had liver cancer, 18.1% had lung cancer and the remaining 40.2% had esophageal, breast, ovarian, pancreatic, brain or lymphosarcoma. Patients with poorer states had metastases to the liver (25%), retroperitoneal lymph nodes (25), ascites (22.2%) and exudative pleuritis (11.1%).

Geren's carcinosarcoma = experiment: Inhibition of tumor growth in implanted tumors; type: in vivo, mice and rats
[4] = Ability to keep normal activities, minimum signs of the disease
[5] = Maintains themself, but is not able to work
[6] = Needs occasional assistance, but is able to maintain themself
[7] = Normal activities are hardly performable, some signs of the disease

CC1=CCC23OC2(C)CCC2C(CN(C)C)C(=O)OC2C13.Cl (centres unmarked) [Dimethylaminoarglabin hydrochloride]
hemagglutination titer (immune system [1]; 100 mg/kg IP): slight decrease
hemagglutination test index (immune system [1]; repeated IP 30 mg/kg, day 10): decreased
hemagglutination titers (immune system [1]; repeated IP 10 and 20 mg/kg, days 5 and 10): increased
delayed-type hypersensitivity reaction (immune system [1]; repeated IP, day 5): No effect
delayed-type hypersensitivity reaction (immune system [1]; repeated IP, day 10): increased by day 10
delayed-type hypersensitivity reaction (immune system [1]; single 50 mg/kg IP): did not alter
hemagglutination titer (immune system [1]; single 50 mg/kg IP): did not alter
leukopenia and lymphopenia (immune system [2]): reduced the leukopenia and lymphopenia
Delayed type hypersensitivity, Rats with Pliss Lymphosarcoma After Treatment (immune system [3]): 89.9-132.2%
Hemagglutination (RHG), Rats with Pliss Lymphosarcoma After Treatment (immune system [3]): 82.2-142.6%
Nitroblue tetrazolium (NBT), Rats with Pliss Lymphosarcoma After Treatment (immune system [3]): 79.2-175.4%
Spontaneous-erythrocyte rosette forming (E-ROK), Rats with Pliss Lymphosarcoma After Treatment (immune system [3]): 94.8-162.5%
patients with no response (stage IV cancer; 8 of 72): 11.1%
patients responded to therapy (stage IV cancer; 64 of 72): 88.9%
% of Patients - Absence of dynamics or stabilization (stage IV cancer; 72 patients): 31.9%
% of Patients - Partial regression over or equal to 50% decrease of tumor or metastasis (stage IV cancer; 72 patients): 61.1%
% of Patients - Progression (stage IV cancer; 72 patients): 7.0%
Number of Patients % - Karnofsky scale 90 (stage IV cancer; [4]): 41.7%
Number of Patients abs, N - Karnofsky scale 90 (stage IV cancer; [4]): 30
Thrombocytes, mean index of peripheral blood (stage IV cancer; After Treatment (before treatment 2.0)): 2.8 thsd
Erythrocytes, mean index of peripheral blood (stage IV cancer; After Treatment (before treatment 2.3-3.0)): 3.0 10^12/l-10^9/l
Leukocytes, mean index of peripheral blood (stage IV cancer; After Treatment (before treatment 4.5-5.5)): 4.0 10^12/l-10^9/l
Lymphocytes, mean index of peripheral blood (stage IV cancer; After Treatment (before treatment 8-15)): 15-20
Thrombocytes, mean index of peripheral blood (stage IV cancer; During Treatment (before treatment 2.0)): 2.3 thsd
Erythrocytes, mean index of peripheral blood (stage IV cancer; During Treatment (before treatment 2.3-3.0)): 2.4-3.0 10^12/l-10^9/l
Leukocytes, mean index of peripheral blood (stage IV cancer; During Treatment (before treatment 4.5-5.5)): 3.5-4.0 10^12/l-10^9/l
Lymphocytes, mean index of peripheral blood (stage IV cancer; During Treatment (before treatment 8-15)): 28-35
Number of Patients % - Karnofsky scale 30 (stage IV cancer; Extreme invalidism): 4.2%
Number of Patients abs, N - Karnofsky scale 30 (stage IV cancer; Extreme invalidism): 3
Number of Patients % - Karnofsky scale 70 (stage IV cancer; [5]): 33.3%
Number of Patients abs, N - Karnofsky scale 70 (stage IV cancer; [5]): 24
Number of Patients % - Karnofsky scale 60 (stage IV cancer; [6]): 6.9%
Number of Patients abs, N - Karnofsky scale 60 (stage IV cancer; [6]): 5
Number of Patients % - Karnofsky scale 80 (stage IV cancer; [7]): 13.9%
Number of Patients abs, N - Karnofsky scale 80 (stage IV cancer; [7]): 10
side effects (stage IV cancer; patients, hydrochloride): No side effects
Inhibition of Tumour Growth, % - Geren's carcinosarcoma (Geren's carcinosarcoma; dose 30 mg/kg): 80.1%
Inhibition of Tumour Growth, % - Geren's carcinosarcoma (Geren's carcinosarcoma; dose 50 mg/kg): 83.3* %
